Laboratory results as given in PubChem BioAssay AID1259407 (Chemical Carcinogenesis Research Information System (CCRIS), 2018).
The source made the active and inactive calls. No rule for the calls is given here.

Test system: CCRIS mutagenicity, Ames/micronucleus/aberration tests
Test: CCRIS mutagenicity studies
Excerpt: The CCRIS database contains chemical records with carcinogenicity, mutagenicity, tumor promotion, and tumor inhibition test results. It was developed by the National Cancer Institute (NCI). Data are derived from studies cited in primary journals, current awareness tools, NCI reports, and other sources. Test results have been reviewed by experts in carcinogenesis and mutagenesis.
CCRIS provides historical information from the years 1985 - 2011. It is no longer updated.
This is an archive assay for CCRIS mutagenicity studies.

[1] = Test System: AMES SALMONELLA TYPHIMURIUM, Strain/Indicator: TA98, Metabolic Activation: NONE, Method: STANDARD PLATE
[2] = Test System: AMES SALMONELLA TYPHIMURIUM, Strain/Indicator: TA100, Metabolic Activation: NONE, Method: STANDARD PLATE
[3] = Test System: AMES SALMONELLA TYPHIMURIUM, Strain/Indicator: TA100, Metabolic Activation: RAT, LIVER, S-9, AROCLOR 1254, Method: STANDARD PLATE
[4] = Test System: AMES SALMONELLA TYPHIMURIUM, Strain/Indicator: TA1535, Metabolic Activation: NONE, Method: STANDARD PLATE
[5] = Test System: AMES SALMONELLA TYPHIMURIUM, Strain/Indicator: TA1535, Metabolic Activation: RAT, LIVER, S-9, AROCLOR 1254, Method: STANDARD PLATE
[6] = Test System: AMES SALMONELLA TYPHIMURIUM, Strain/Indicator: TA97, Metabolic Activation: NONE, Method: STANDARD PLATE
[7] = Test System: AMES SALMONELLA TYPHIMURIUM, Strain/Indicator: TA98, Metabolic Activation: RAT, LIVER, S-9, AROCLOR 1254, Method: STANDARD PLATE
[8] = Test System: AMES SALMONELLA TYPHIMURIUM, Strain/Indicator: TA102, Metabolic Activation: NONE, Method: STANDARD PLATE

CCc1ccc2c3c(cccc13)-c1ccccc1-2
mutagenic call [1]: inactive; negative
mutagenic call (Test System: AMES SALMONELLA TYPHIMURIUM, Strain/Indicator: TA98, Metabolic Activation: RAT, LIVER, S-9, AROCLOR 1254 (4%), Method: STANDARD PLATE): inactive; negative

CC(O)CO (centres undefined) (tested in a mixture with another compound)
mutagenic call (Test System: AMES SALMONELLA TYPHIMURIUM, Strain/Indicator: TA102, Metabolic Activation: RAT, LIVER, S-9, PHENOBARBITAL AND 5,6-BENZOFLAVONE, Method: STANDARD PLATE): inactive; negative
mutagenic call (Test System: AMES SALMONELLA TYPHIMURIUM, Strain/Indicator: TA2638, Metabolic Activation: RAT, LIVER, S-9, PHENOBARBITAL AND 5,6-BENZOFLAVONE, Method: STANDARD PLATE): inactive; negative
mutagenic call (Test System: E. COLI, Strain/Indicator: WP2 (PKM101), Metabolic Activation: RAT, LIVER, S-9, PHENOBARBITAL AND 5,6-BENZOFLAVONE, Method: STANDARD PLATE): active; positive
mutagenic call (Test System: E. COLI, Strain/Indicator: WP2 UVRA (PKM101), Metabolic Activation: RAT, LIVER, S-9, PHENOBARBITAL AND 5,6-BENZOFLAVONE, Method: STANDARD PLATE): active; positive

c1ccc2c(c1)-c1cccc3c1c-2cc1c2ccccc2ccc31
mutagenic call (Test System: HUMAN H1A1V2 CELLS, Strain/Indicator: TK LOCUS, Metabolic Activation: NONE, Method: SUSPENSION/PLATE): inactive; negative

CC(=O)Nc1ccc(S(=O)(=O)c2ccc(NC(C)=O)cc2)cc1
mutagenic call [1]: inactive; negative
mutagenic call (Test System: AMES SALMONELLA TYPHIMURIUM, Strain/Indicator: TA98, Metabolic Activation: RAT, LIVER, S-9, PCB, Method: STANDARD PLATE): inactive; negative
mutagenic call [2]: inactive; negative
mutagenic call (Test System: AMES SALMONELLA TYPHIMURIUM, Strain/Indicator: TA100, Metabolic Activation: RAT, LIVER, S-9, PCB, Method: STANDARD PLATE): inactive; negative

C1=C/CCC2OC2CC/C=C/CC/1 (centres undefined)
mutagenic call [2]: inactive; negative
mutagenic call [3]: inactive; negative
mutagenic call [4]: inactive; negative
mutagenic call [5]: inactive; negative

Cc1ccncc1
mutagenic call [6]: inactive; negative
mutagenic call (Test System: AMES SALMONELLA TYPHIMURIUM, Strain/Indicator: TA97, Metabolic Activation: RAT, LIVER, S-9, AROCLOR 1254, Method: STANDARD PLATE): inactive; negative
mutagenic call [1]: inactive; negative
mutagenic call [7]: inactive; negative
mutagenic call [2]: inactive; negative
mutagenic call [3]: inactive; negative
mutagenic call [8]: inactive; negative
mutagenic call (Test System: AMES SALMONELLA TYPHIMURIUM, Strain/Indicator: TA102, Metabolic Activation: RAT, LIVER, S-9, AROCLOR 1254, Method: STANDARD PLATE): inactive; negative

O=[N+]([O-])c1cc2ccc3cccc4ccc(c1)c2c34
mutagenic call (Test System: AMES SALMONELLA TYPHIMURIUM, Strain/Indicator: TA96, Metabolic Activation: NONE, Method: STANDARD PLATE): active; positive
mutagenic call [6]: active; positive
mutagenic call (Test System: AMES SALMONELLA TYPHIMURIUM, Strain/Indicator: TA98(1,8-DNP6), Metabolic Activation: NONE): active; positive
mutagenic call (Test System: AMES SALMONELLA TYPHIMURIUM, Strain/Indicator: TA98(1,8-DNP6), Metabolic Activation: NONE, Method: STANDARD PLATE): active; positive
mutagenic call (Test System: AMES SALMONELLA TYPHIMURIUM, Strain/Indicator: TA98(1,8-DNP6), Metabolic Activation: RAT, LIVER, S-9, AROCLOR 1254): inactive; negative
mutagenic call (Test System: AMES SALMONELLA TYPHIMURIUM, Strain/Indicator: TA98(NR), Metabolic Activation: NONE): active; positive
mutagenic call (Test System: AMES SALMONELLA TYPHIMURIUM, Strain/Indicator: TA98(NR), Metabolic Activation: NONE, Method: STANDARD PLATE): active; positive
mutagenic call (Test System: AMES SALMONELLA TYPHIMURIUM, Strain/Indicator: TA98(NR), Metabolic Activation: RAT, LIVER, S-9, AROCLOR 1254): active; positive
mutagenic call (Test System: AMES SALMONELLA TYPHIMURIUM, Strain/Indicator: TA98, Metabolic Activation: NONE): active; positive
mutagenic call (Test System: AMES SALMONELLA TYPHIMURIUM, Strain/Indicator: TA98, Metabolic Activation: NONE, Method: PREINCUBATION): active; positive
mutagenic call [1]: active; positive
mutagenic call (Test System: AMES SALMONELLA TYPHIMURIUM, Strain/Indicator: TA98, Metabolic Activation: RAT, LIVER, S-9, AROCLOR 1254): active; positive
mutagenic call (Test System: AMES SALMONELLA TYPHIMURIUM, Strain/Indicator: TA98, Metabolic Activation: RAT, LIVER, S-9, PCB (10%), Method: PREINCUBATION): inactive; negative
mutagenic call (Test System: AMES SALMONELLA TYPHIMURIUM, Strain/Indicator: TA100(NR), Metabolic Activation: NONE): inactive; negative
mutagenic call (Test System: AMES SALMONELLA TYPHIMURIUM, Strain/Indicator: TA100(NR), Metabolic Activation: NONE, Method: STANDARD PLATE): inactive; negative
mutagenic call (Test System: AMES SALMONELLA TYPHIMURIUM, Strain/Indicator: TA100(NR), Metabolic Activation: RAT, LIVER, S-9, AROCLOR 1254): active; positive
mutagenic call (Test System: AMES SALMONELLA TYPHIMURIUM, Strain/Indicator: TA100, Metabolic Activation: NONE): active; positive
mutagenic call [2]: active; positive
mutagenic call (Test System: AMES SALMONELLA TYPHIMURIUM, Strain/Indicator: TA100, Metabolic Activation: RAT, LIVER, S-9, AROCLOR 1254): active; positive
mutagenic call [8]: inactive; negative
mutagenic call (Test System: AMES SALMONELLA TYPHIMURIUM, Strain/Indicator: TA104, Metabolic Activation: NONE): active; positive
mutagenic call (Test System: AMES SALMONELLA TYPHIMURIUM, Strain/Indicator: TA104, Metabolic Activation: NONE, Method: STANDARD PLATE): active; positive
mutagenic call (Test System: AMES SALMONELLA TYPHIMURIUM, Strain/Indicator: TA104, Metabolic Activation: RAT, LIVER, S-9, AROCLOR 1254): active; positive
mutagenic call [4]: inactive; negative
mutagenic call (Test System: AMES SALMONELLA TYPHIMURIUM, Strain/Indicator: TA1538, Metabolic Activation: NONE, Method: STANDARD PLATE): active; positive
mutagenic call (Test System: AMES SALMONELLA TYPHIMURIUM, Strain/Indicator: TA7001, Metabolic Activation: NONE, Method: PREINCUBATION): active; positive
mutagenic call (Test System: AMES SALMONELLA TYPHIMURIUM, Strain/Indicator: TA7002, Metabolic Activation: NONE, Method: PREINCUBATION): active; positive
mutagenic call (Test System: AMES SALMONELLA TYPHIMURIUM, Strain/Indicator: TA7003, Metabolic Activation: NONE, Method: PREINCUBATION): active; positive
mutagenic call (Test System: AMES SALMONELLA TYPHIMURIUM, Strain/Indicator: TA7004, Metabolic Activation: NONE, Method: PREINCUBATION): active; positive
mutagenic call (Test System: AMES SALMONELLA TYPHIMURIUM, Strain/Indicator: TA7005, Metabolic Activation: NONE, Method: PREINCUBATION): active; positive
mutagenic call (Test System: AMES SALMONELLA TYPHIMURIUM, Strain/Indicator: TA7006, Metabolic Activation: NONE, Method: PREINCUBATION): active; positive

C=C(C)C1CC=C(CO)CC1 (centres undefined)
mutagenic call (Test System: Mouse lymphoma, Strain/Indicator: L5178Y (tk+/tk-), Metabolic Activation: None, Method: Suspension/plate): inactive; negative
mutagenic call (Test System: Mouse lymphoma, Strain/Indicator: L5178Y (tk+/tk-), Metabolic Activation: Rat, Liver, S-9, Aroclor 1254, Method: Suspension/plate): inactive; positive. retest at same dose: negative

Cc1ccc(CCl)cc1
mutagenic call [2]: inactive; negative

O=S(=O)(Nc1ccc(Cl)c(Cl)c1)c1cccc2cccnc12
mutagenic call [1]: inactive; negative
mutagenic call [7]: inactive; negative
mutagenic call [2]: inactive; negative
mutagenic call [3]: inactive; negative
mutagenic call [4]: inactive; negative
mutagenic call [5]: inactive; negative
mutagenic call (Test System: AMES SALMONELLA TYPHIMURIUM, Strain/Indicator: TA1537, Metabolic Activation: NONE, Method: STANDARD PLATE): inactive; negative
mutagenic call (Test System: AMES SALMONELLA TYPHIMURIUM, Strain/Indicator: TA1537, Metabolic Activation: RAT, LIVER, S-9, AROCLOR 1254, Method: STANDARD PLATE): inactive; negative

O=C(/C=C/c1ccc(Oc2ccccc2)cc1)c1ccccc1
mutagenic call [1]: inactive; negative
mutagenic call [7]: inactive; negative
mutagenic call [2]: inactive; negative
mutagenic call [3]: inactive; negative
